Measured values reported in US10183950B2, “Thienopyrimidine inhibitors of atypical protein kinase C” (Cancer Research Technology Limited, priority 2011, dated 2019).
Where two headings read alike, the source gives them in different places.

Target: T1, full-length human PKCι (Homo sapiens, UniProt P41743)
T1 construct: Recombinant, full-length human PKCι expressed in Sf21 insect cells is also commercially available; purchased; host or cells: Sf21 insect cells
T1 sequence (P41743 1-596): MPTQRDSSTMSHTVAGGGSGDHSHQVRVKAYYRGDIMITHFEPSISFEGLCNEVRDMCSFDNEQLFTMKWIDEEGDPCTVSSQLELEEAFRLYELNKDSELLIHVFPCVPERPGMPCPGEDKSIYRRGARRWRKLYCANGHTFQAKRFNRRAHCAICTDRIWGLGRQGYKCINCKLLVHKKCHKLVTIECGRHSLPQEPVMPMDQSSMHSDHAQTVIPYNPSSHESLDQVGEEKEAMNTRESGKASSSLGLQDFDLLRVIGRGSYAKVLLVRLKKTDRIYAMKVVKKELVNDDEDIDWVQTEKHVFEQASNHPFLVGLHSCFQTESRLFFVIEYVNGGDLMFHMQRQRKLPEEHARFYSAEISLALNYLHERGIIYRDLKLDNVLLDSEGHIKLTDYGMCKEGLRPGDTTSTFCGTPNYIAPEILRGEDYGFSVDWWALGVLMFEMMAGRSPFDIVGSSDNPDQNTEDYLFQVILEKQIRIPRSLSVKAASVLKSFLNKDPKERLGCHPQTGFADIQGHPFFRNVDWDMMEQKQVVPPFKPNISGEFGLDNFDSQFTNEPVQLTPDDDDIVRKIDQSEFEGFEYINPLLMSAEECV
Assay: PKCι IC50 IMAP fluorescence polarisation assay, full-length enzyme
Assay type: biochemical
Details: full length PKCi at 15 μM ATP

[1] = read-out: IC50 in IMAP assay against full length PKCi
[2] = read-out: IC50 in IMAP assay against full length PKCi (Activity)

`CNCC#Cc1csc2c(NC[C@@H](N)Cc3ccccc3)nc(-c3ccncc3)nc12` [compound 538, (S)-N*1*-[7-(3-Methylamino-prop-1-ynyl)-2-pyridin-4-yl-thieno[3,2-d]pyrimidin-4-yl]-3-phenyl-propane-1,2-diamine] showed an IC50 [1] of 100 to 1000 nM.

In the case of `CC[C@](C)(O)C#Cc1csc2c(NC[C@@H](N)Cc3ccccc3)nc(-c3ccncc3)nc12` [compound 523, (S)-1-[4-((S)-2-Amino-3-phenyl-propylamino)-2-pyridin-4-yl-thieno[3,2-d]pyrimidin-7-yl]-3-methyl-pent-1-yn-3-ol], the IC50 [1] is reported as 100 to 1000 nM.

`N[C@H](CNc1nc(-c2ccncc2)nc2sc3c(c12)CCN(C(=O)c1ccccc1)C3)Cc1ccccc1` [compound 72, [4-((S)-2-Amino-3-phenyl-propylamino)-2-pyridin-4-yl-5,8-dihydro-6H-pyrido[4′,3′:4,5]thieno[2,3-d]pyrimidin-7-yl]-phenyl-methanone] gave an IC50 [2] of 1000 to 10000 nM.

Compound `N[C@H](CNc1nc(-c2ccncc2F)nc2c(C#CC3(O)CCC3)csc12)Cc1ccccc1` [compound 507, 1-[4-((S)-2-Amino-3-phenyl-propylamino)-2-(3-fluoro-pyridin-4-yl)-thieno[3,2-d]pyrimidin-7-ylethynyl]-cyclobutanol] has an IC50 [1] of 100 to 1000 nM.

In the case of `N[C@H](CNc1nc(-c2ccncc2)nc2c(C#CC3(O)CC3)csc12)Cc1ccccc1` [compound 532, 1-[4-((S)-2-Amino-3-phenyl-propylamino)-2-pyridin-4-yl-thieno[3,2-d]pyrimidin-7-ylethynyl]-cyclopropanol], the IC50 [1] is reported as under 100 nM.

`NC(CNc1nc(-c2ccncc2F)nc2c(-c3ccc(CO)cc3)csc12)Cc1ccccc1` (stereo in doubt) [compound 424, {4-[4-((R)-2-Amino-3-phenyl-propylamino)-2-(3-fluoro-pyridin-4-yl)-thieno[3,2-d]pyrimidin-7-yl]-phenyl}-methanol] gave an IC50 [1] of 1000 to 10000 nM.

For `CCNC(=O)c1csc2c(NC[C@@H](N)Cc3ccccc3)nc(-c3ccncc3)nc12` [compound 554, 4-((S)-2-Amino-3-phenyl-propylamino)-2-pyridin-4-yl-thieno[3,2-d]pyrimidine-7-carboxylic acid ethylamide], the IC50 [1] was 100 to 1000 nM.

`N[C@H](CNc1nc(-c2ccncc2)nc2c(Br)csc12)CC1CCCCC1` [compound 348, (S)-N*1*-(7-Bromo-2-pyridin-4-yl-thieno[3,2-d]pyrimidin-4-yl)-3-cyclohexyl-propane-1,2-diamine] gave an IC50 [1] of 100 to 1000 nM.

Compound `CC(C)(C)c1sc2c(NC[C@@H](N)Cc3ccccc3)nc(-c3ccncc3)nc2c1-c1cccc(F)c1` [compound 436, (S)-N*1*-[6-tert-Butyl-7-(3-fluoro-phenyl)-2-pyridin-4-yl-thieno[3,2-d]pyrimidin-4-yl]-3-phenyl-propane-1,2-diamine] has an IC50 [1] of 10000 to 40000 nM.

Work on `N[C@@H](CNc1nc(-c2ccncc2)nc2sc3c(c12)CCSC3)Cc1ccccc1` [compound 81, (R)-3-Phenyl-N*1*-(2-pyridin-4-yl-5,8-dihydro-6H-thiopyrano[4′,3′:4,5]thieno[2,3-d]pyrimidin-4-yl)-propane-1,2-diamine] yielded an IC50 [2] of 1000 to 10000 nM.

For `C/C=C\c1csc2c(NC[C@@H](N)Cc3ccccc3)nc(-c3ccncc3)nc12` [compound 407, (S)-3-Phenyl-N*1*-[7-((Z)-propenyl)-2-pyridin-4-yl-thieno[3,2-d]pyrimidin-4-yl]-propane-1,2-diamine], the IC50 [1] was under 100 nM.

For `CC(C)Nc1cc(-c2nc(N[C@@H]3CCNC3)c3sccc3n2)ccn1` [compound 626, [2-(2-Isopropylamino-pyridin-4-yl)-thieno[3,2-d]pyrimidin-4-yl]-(R)-pyrrolidin-3-yl-amine], the IC50 [1] was 1000 to 10000 nM.

With `O=C(Nc1cc(-c2nc(N[C@@H]3CCNC3)c3sccc3n2)ccn1)C1CC1` [compound 599, Cyclopropanecarboxylic acid {4-[4-((R)-pyrrolidin-3-ylamino)-thieno[3,2-d]pyrimidin-2-yl]-pyridin-2-yl}-amide] the IC50 [1] was 100 to 1000 nM.

`Cc1ccsc1-c1csc2c(NC[C@@H](N)Cc3ccccc3)nc(-c3ccncc3)nc12` [compound 396, (S)-N*1*-[7-(3-Methyl-thiophen-2-yl)-2-pyridin-4-yl-thieno[3,2-d]pyrimidin-4-yl]-3-phenyl-propane-1,2-diamine] was tested, and the IC50 [1] was 100 to 1000 nM.

In the case of `O=S(=O)(Nc1cc(-c2nc(N[C@@H]3CCNC3)c3sccc3n2)ccn1)c1ccccc1` [compound 576, N-{4-[4-((R)-Pyrrolidin-3-ylamino)-thieno[3,2-d]pyrimidin-2-yl]-pyridin-2-yl}-benzenesulfonamide], the IC50 [1] is reported as 10000 to 40000 nM.

With `C[C@H](N)CNc1nc(-c2ccncc2)nc2c(Br)csc12` [compound 305, (S)—N*1*-(7-Bromo-2-pyridin-4-yl-thieno[3,2-d]pyrimidin-4-yl)-propane-1,2-diamine] the IC50 [1] was 100 to 1000 nM.

For `CCN(CC)C(=O)c1csc2c(NC[C@@H](N)Cc3ccccc3)nc(-c3ccncc3)nc12` [compound 552, 4-((S)-2-Amino-3-phenyl-propylamino)-2-pyridin-4-yl-thieno[3,2-d]pyrimidine-7-carboxylic acid diethylamide], the IC50 [1] was 1000 to 10000 nM.

For `COc1cccc(C[C@H](N)CNc2nc(-c3ccncc3)nc3sc4c(c23)CCCC4)c1` [compound 54, (S)-3-(3-Methoxy-phenyl)-N*1*-(2-pyridin-4-yl-5,6,7,8-tetrahydro-benzo[4,5]thieno[2,3-d]pyrimidin-4-yl)-propane-1,2-diamine], the IC50 [2] was 1000 to 10000 nM.

`CCCC#Cc1csc2c(NC[C@@H](N)Cc3ccccc3)nc(-c3ccncc3)nc12` [compound 401, (S)-N*1*-(7-Pent-1-ynyl-2-pyridin-4-yl-thieno[3,2-d]pyrimidin-4-yl)-3-phenyl-propane-1,2-diamine] showed an IC50 [1] of 100 to 1000 nM.

With `O[C@@H](CNc1cc(-c2nc(N[C@@H]3CCNC3)c3sccc3n2)ccn1)c1ccccc1` [compound 593, (R)-1-Phenyl-2-{4-[4-((R)-pyrrolidin-3-ylamino)-thieno[3,2-d]pyrimidin-2-yl]-pyridin-2-ylamino}-ethanol] the IC50 [1] was 1000 to 10000 nM.

`C=Cc1csc2c(NC[C@@H](N)Cc3ccccc3)nc(-c3ccncc3)nc12` [compound 408, (S)-3-Phenyl-N*1*-(2-pyridin-4-yl-7-vinyl-thieno[3,2-d]pyrimidin-4-yl)-propane-1,2-diamine] was tested, and the IC50 [1] was under 100 nM.

`NC(=O)CN1C[C@H](Nc2nc(-c3ccnc(NC(=O)c4cccs4)c3)nc3ccsc23)[C@@H](O)C1` [compound 629, Thiophene-2-carboxylic acid {4-[4-((3S,4S)-1-carbamoylmethyl-4-hydroxy-pyrrolidin-3-ylamino)-thieno[3,2-d]pyrimidin-2-yl]-pyridin-2-yl}-amide] was tested, and the IC50 [1] was 1000 to 10000 nM.

`CN(C)CCNc1nc(-c2ccncc2)nc2c(Br)csc12` [compound 339, N′-(7-Bromo-2-pyridin-4-yl-thieno[3,2-d]pyrimidin-4-yl)-N,N-dimethyl-ethane-1,2-diamine] was tested, and the IC50 [1] was 10000 to 40000 nM.

`CC(C)(C)c1sc2c(NC[C@@H](N)Cc3ccccc3)nc(-c3ccncc3)nc2c1Br` [compound 334, (S)-N*1*-(7-Bromo-6-tert-butyl-2-pyridin-4-yl-thieno[3,2-d]pyrimidin-4-yl)-3-phenyl-propane-1,2-diamine] gave an IC50 [1] of 1000 to 10000 nM.

`CN(C)C(=O)Nc1cc(-c2nc(N[C@@H]3CCNC3)c3sccc3n2)ccn1` [compound 581, 1,1-Dimethyl-3-{4-[4-((R)-pyrrolidin-3-ylamino)-thieno[3,2-d]pyrimidin-2-yl]-pyridin-2-yl}-urea] gave an IC50 [1] of 1000 to 10000 nM.

`C[C@@H](F)C#Cc1csc2c(NC[C@@H](N)Cc3ccccc3)nc(-c3ccncc3)nc12` [compound 544, (S)—N*1*-[7-(3-Fluoro-but-1-ynyl)-2-pyridin-4-yl-thieno[3,2-d]pyrimidin-4-yl]-3-phenyl-propane-1,2-diamine] showed an IC50 [1] of under 100 nM.

Compound `Cc1c(Br)sc2c(NC[C@@H](N)Cc3ccccc3)nc(-c3ccncc3)nc12` [compound 337, (S)-N*1*-(6-Bromo-7-methyl-2-pyridin-4-yl-thieno[3,2-d]pyrimidin-4-yl)-3-phenyl-propane-1,2-diamine] has an IC50 [1] of 100 to 1000 nM.

`CNC(=O)c1csc2c(NC[C@@H](N)Cc3ccccc3)nc(-c3ccncc3)nc12` [compound 553, 4-((S)-2-Amino-3-phenyl-propylamino)-2-pyridin-4-yl-thieno[3,2-d]pyrimidine-7-carboxylic acid methylamide] was tested, and the IC50 [1] was under 100 nM.

`CN(C)CC(=O)N1CCc2c(sc3nc(-c4ccncc4)nc(NCCN)c23)C1` [compound 111, 1-[4-(2-Amino-ethylamino)-2-pyridin-4-yl-5,8-dihydro-6H-pyrido[4′,3′:4,5]thieno[2,3-d]pyrimidin-7-yl]-2-dimethylamino-ethanone] gave an IC50 [2] of 10000 to 40000 nM.

`CC(C)(C)c1sc2c(NC[C@@H](N)Cc3ccccc3)nc(-c3ccncc3)nc2c1-c1ccc(F)cc1` [compound 442, (S)-N*1*-[6-tert-Butyl-7-(4-fluoro-phenyl)-2-pyridin-4-yl-thieno[3,2-d]pyrimidin-4-yl]-3-phenyl-propane-1,2-diamine] gave an IC50 [1] of 10000 to 40000 nM.

For `Fc1ccccc1Nc1csc2c(N[C@@H]3CCNC3)nc(-c3ccncc3F)nc12` [compound 500, N*7*-(2-Fluoro-phenyl)-2-(3-fluoro-pyridin-4-yl)-N*4*-(R)-pyrrolidin-3-yl-thieno[3,2-d]pyrimidine-4,7-diamine], the IC50 [1] was 100 to 1000 nM.
